Calls of active or inactive are those of the source. The rule behind the calls is not given here.
Experiments:
HCT-116 [1] = assay: Induction of DNA damage in human HCT-116 cells assessed as increase in gammaH2AX level incubated for 24 hrs by immunofluorescence staining based analysis; assay type: functional, cell-based
HCT-116 [2] = assay: Induction of DNA damage in human HCT-116 cells assessed as increase in 53BP1 foci positive cells incubated for 24 hrs by immunofluorescence staining based analysis; assay type: functional, cell-based
Quadruplex DNA [3] = assay: Thermal stabilization of human c-Kit2 G4 quadruplex DNA assessed as change in melting temperature (deltaT1/2) incubated for 10 mins by circular dichroism spectroscopic analysis (reference value: 62.4 +/-0.1 degreeC); assay type: nucleic-acid assay
Quadruplex DNA [4] = assay: Thermal stabilization of human Tel23-hy G4 quadruplex DNA assessed as change in melting temperature (deltaT1/2) incubated for 10 mins by circular dichroism spectroscopic analysis (reference value: 48 +/- 0.1 degreeC); assay type: nucleic-acid assay
Quadruplex DNA [5] = assay: Thermal stabilization of human Tel26-hy G4 quadruplex DNA assessed as change in melting temperature (deltaT1/2) incubated for 10 mins by circular dichroism spectroscopic analysis (reference value: 55.4 +/- 0.1 degreeC); assay type: nucleic-acid assay
Quadruplex DNA [6] = assay: Thermal stabilization of human c-Myc G4 quadruplex DNA assessed as change in melting temperature (deltaT1/2) incubated for 10 mins by circular dichroism spectroscopic analysis (reference value: 70.5 +/- 0.1 degreeC); assay type: nucleic-acid assay
Quadruplex DNA [7] = assay: Thermal stabilization of human Tel23-p G4 quadruplex DNA assessed as change in melting temperature (deltaT1/2) incubated for 10 mins by circular dichroism spectroscopic analysis (reference value: 68.2 +/- 0.1 degreeC); assay type: nucleic-acid assay

Row | SMILES | Activity (HCT-116 [1]) | Activity (HCT-116 [2]) | ΔTm (Quadruplex DNA [3]) [°C] | ΔTm (Quadruplex DNA [4]) [°C] | ΔTm (Quadruplex DNA [5]) [°C] | ΔTm (Quadruplex DNA [6]) [°C] | ΔTm (Quadruplex DNA [7]) [°C]
1 | CC[C@@]1(O)C(=O)OCc2c1cc1n(c2=O)Cc2cc3ccccc3nc2-1 | Active | Active | – | – | – | – | –
2 | COc1ccc2cc3[n+](cc2c1OC)CCc1cc2c(cc1-3)OCO2 | – | – | > 20 | 12.7 | 6.8 | 15.5 | > 20

— ChEMBL document CHEMBL6127154, “Pursuing Polypharmacology: Benzothiopyranoindoles as G-Quadruplex Stabilizers and Topoisomerase I Inhibitors for Effective Anticancer Strategies” (ACS Med Chem Lett, 2024)
